# Source: the Kinase Knowledgebase extract (Sharma et al. 2016)
# Target: EGFR (UniProt P00533)
# Sequence (P00533 whole entry, looked up): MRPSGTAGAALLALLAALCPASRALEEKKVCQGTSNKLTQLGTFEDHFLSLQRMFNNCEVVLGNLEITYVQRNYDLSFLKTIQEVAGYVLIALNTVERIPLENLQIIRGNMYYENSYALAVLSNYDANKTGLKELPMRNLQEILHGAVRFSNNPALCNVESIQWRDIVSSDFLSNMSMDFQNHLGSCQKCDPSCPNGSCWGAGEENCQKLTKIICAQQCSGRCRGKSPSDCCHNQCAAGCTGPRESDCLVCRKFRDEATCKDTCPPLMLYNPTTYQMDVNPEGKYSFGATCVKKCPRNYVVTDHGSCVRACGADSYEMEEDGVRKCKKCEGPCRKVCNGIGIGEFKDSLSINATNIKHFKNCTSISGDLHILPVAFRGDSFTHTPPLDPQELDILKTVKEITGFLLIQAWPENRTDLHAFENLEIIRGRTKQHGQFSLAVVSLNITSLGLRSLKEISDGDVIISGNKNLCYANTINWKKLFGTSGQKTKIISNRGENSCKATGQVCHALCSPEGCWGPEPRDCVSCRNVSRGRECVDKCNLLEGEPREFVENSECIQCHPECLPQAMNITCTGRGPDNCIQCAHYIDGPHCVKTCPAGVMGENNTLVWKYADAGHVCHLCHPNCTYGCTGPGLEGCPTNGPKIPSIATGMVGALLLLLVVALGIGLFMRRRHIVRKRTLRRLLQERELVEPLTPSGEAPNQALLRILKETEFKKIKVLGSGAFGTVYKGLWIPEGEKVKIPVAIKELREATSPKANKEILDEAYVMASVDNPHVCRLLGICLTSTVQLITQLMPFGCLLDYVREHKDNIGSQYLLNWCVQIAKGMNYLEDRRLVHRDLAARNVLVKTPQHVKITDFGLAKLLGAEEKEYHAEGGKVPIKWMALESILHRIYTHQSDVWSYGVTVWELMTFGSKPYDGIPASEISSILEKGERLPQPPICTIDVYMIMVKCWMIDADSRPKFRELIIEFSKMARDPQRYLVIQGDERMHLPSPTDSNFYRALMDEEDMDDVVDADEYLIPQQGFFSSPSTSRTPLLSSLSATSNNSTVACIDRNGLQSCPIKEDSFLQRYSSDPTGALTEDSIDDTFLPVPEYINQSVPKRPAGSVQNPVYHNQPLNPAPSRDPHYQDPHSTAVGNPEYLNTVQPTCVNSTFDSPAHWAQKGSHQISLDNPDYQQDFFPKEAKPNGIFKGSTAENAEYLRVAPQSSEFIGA
row,Structure (SMILES),IC50
1,COC(=O)c1cn2ncnc(Nc3ccc(F)c(Cl)c3)c2c1CCCOCc1ccccc1,0.003 to 25 µM
2,Cc1ccc(Nc2ncnn3cc(C(=O)N4CCN(C)CC4)c(C)c23)cc1O,0.003 to 25 µM
3,COC(=O)c1cn2ncnc(Nc3ccc(C)cn3)c2c1C,0.003 to 25 µM
4,COC(=O)c1cn2ncnc(N(C)c3ccc(C)c(O)c3)c2c1C,0.003 to 25 µM
5,COC(=O)c1cn2ncnc(Nc3cc(C)cc(O)c3)c2c1C,0.003 to 25 µM
6,Cc1c(C(N)=O)cn2ncnc(C3C(=O)Nc4ccccc43)c12 (stereo not drawn),0.003 to 25 µM
7,COC(=O)c1cn2ncnc(Nc3cccc(NS(C)(=O)=O)c3)c2c1C,0.003 to 25 µM
8,COC(=O)c1cc2c(Nc3ccc4c(cnn4Cc4ccccc4)c3)ncnn2c1,0.003 to 25 µM
9,CCc1nc(C2C(=O)Nc3ccccc32)c2c(C)c(C(=O)NCCCN(C)C)cn2n1 (stereo not drawn),0.003 to 25 µM
10,COc1c(C(=O)NCCN2CCCC2)cn2ncnc(Nc3ccc(Br)cc3F)c12,0.003 to 25 µM
11,CCOC(=O)c1cn2ncnc(Nc3ccc(Br)cc3F)c2c1OC,0.003 to 25 µM
12,CCc1c(NC(=O)OCc2ccccc2)cn2ncnc(Nc3ccc(OC)nc3)c12,0.003 to 25 µM
13,COc1ccc(Nc2ncnn3cc(C(=O)NCCCN4CCOCC4)c(C)c23)cc1O,0.003 to 25 µM
14,COC(=O)c1cn2ncnc(Nc3cc(O)c4ccccc4c3)c2c1C,0.003 to 25 µM
15,CCOC(=O)c1cn2ncnc(N3CCOCC3)c2c1CC,0.003 to 25 µM
16,COC(=O)c1cn2ncnc(N3CC(=O)Nc4ccccc43)c2c1C,0.003 to 25 µM
17,COC(=O)c1cn2ncnc(Nc3ccc(Br)c(C)c3)c2c1C,0.003 to 25 µM
18,Cc1c(C(=O)CCN2CCN(C)CC2)cn2ncnc(C3C(=O)Nc4ccccc43)c12 (stereo not drawn),0.003 to 25 µM
19,COC(=O)c1cn2ncnc(Nc3ccc(C)c(NS(C)(=O)=O)c3)c2c1C,0.003 to 25 µM
20,Fc1cc(Br)ccc1Nc1ncnn2cccc12,0.003 to 25 µM

row,Structure (SMILES),IC50
1,Cc1c(C(=O)NCCCn2ccnc2C)cn2ncnc(C3C(=O)Nc4ccccc43)c12 (stereo not drawn),0.003 to 25 µM
2,COC(=O)c1cn2ncnc(C3C(=O)Nc4ccc(NS(C)(=O)=O)cc43)c2c1C (stereo not drawn),0.003 to 25 µM
3,Cc1ccc(Nc2ncnn3cccc23)cc1O,0.003 to 25 µM
4,Clc1ccc(Nc2ncnn3c(Br)ccc23)cc1,0.003 to 25 µM
5,Cc1ccc(Nc2ncnn3c(C)ccc23)cc1O,0.003 to 25 µM
6,CCOC(=O)c1cn2ncnc(NCc3cccc(Br)c3)c2c1CC,0.003 to 25 µM
7,Cc1ccc(Nc2ncnn3cc(Cn4cncn4)c(C)c23)cc1O,0.003 to 25 µM
8,Cc1c(NC(=O)NCCCN2CCOCC2)cn2ncnc(C3C(=O)Nc4ccccc43)c12 (stereo not drawn),0.003 to 25 µM
9,CCOC(=O)c1cn2ncnc(Nc3ccc(F)c(Cl)c3)c2c1Cc1ccccc1,0.003 to 25 µM
10,Fc1cc(Cl)ccc1Nc1ncnn2cccc12,0.003 to 25 µM
11,CCOC(=O)c1cn2ncnc(N[C@H]3CC[C@H](O)CC3)c2c1CC,0.003 to 25 µM
12,Cc1cc2c(Nc3ccc(C)c(O)c3)ncnn2c1,0.003 to 25 µM
13,CCOC(=O)c1cn2ncnc(NCC3CCCCC3)c2c1CC,0.003 to 25 µM
14,Cc1c(C(=O)NCCCn2ccnn2)cn2ncnc(C3C(=O)Nc4ccccc43)c12 (stereo not drawn),0.003 to 25 µM
15,Cc1c(OCCn2cncn2)cn2ncnc(C3C(=O)Nc4ccccc43)c12 (stereo not drawn),0.003 to 25 µM
16,Cc1c(C(=O)NCC2CCCO2)cn2ncnc(C3C(=O)Nc4ccccc43)c12 (stereo not drawn),0.003 to 25 µM
17,COC(=O)c1cn2ncnc(Nc3ccc(Br)cc3F)c2c1C,0.003 to 25 µM
18,Cc1ccc(Nc2ncnn3cc(C(=O)NCCCN4CCOCC4)c(C)c23)cc1O,0.003 to 25 µM
19,CCOC(=O)c1cn2ncnc(Nc3ccc(C)c(O)c3)c2c1OC,0.003 to 25 µM
20,CCc1c(COCCN2CCOCC2)cn2ncnc(Nc3ccc4c(cnn4Cc4ccccc4)c3)c12,0.003 to 25 µM

row,Structure (SMILES),IC50
1,CCOC(=O)c1cn2ncnc(Nc3ccc4c(cnn4Cc4ccccc4)c3)c2c1C(C)C,0.003 to 25 µM
2,COC(=O)c1cn2ncnc(Nc3ccc(F)c(Cl)c3)c2c1C,0.003 to 25 µM
3,Cc1ccc(Nc2ncnn3c(C)cc(C)c23)cc1O,0.003 to 25 µM
4,COC(=O)c1cn2ncnc(Nc3cc[nH]n3)c2c1C,0.003 to 25 µM
5,CCOC(=O)c1cn2ncnc(N[C@H](C)c3ccccc3)c2c1CC,0.003 to 25 µM
6,Cc1c(C(=O)NCCCN2CCOCC2)cn2ncnc(C3C(=O)Nc4cc(F)ccc43)c12 (stereo not drawn),0.003 to 25 µM
7,COC(=O)c1cn2ncnc(Nc3ccc4c(c3)OCCO4)c2c1C,0.003 to 25 µM
8,COC(=O)c1cn2ncnc(Nc3ccc(NS(=O)(=O)c4ccccc4)c(O)c3)c2c1C,0.003 to 25 µM
9,COC(=O)c1cn2ncnc(Nc3ccc(NC(C)=O)nc3)c2c1C,0.003 to 25 µM
10,Cc1ccn2ncnc(Nc3ccc(Br)cc3F)c12,0.003 to 25 µM
11,CCOC(=O)c1cn2ncnc(Nc3ccc(C)c(N)c3)c2c1CC,0.003 to 25 µM
12,CCOC(=O)c1cn2ncnc(Nc3ccc(C)c(NS(C)(=O)=O)c3)c2c1CC,0.003 to 25 µM
13,COC(=O)c1cn2ncnc(C3C(=O)N(C)c4ccccc43)c2c1C (stereo not drawn),0.003 to 25 µM
14,COC(=O)c1cn2ncnc(C3C(=O)Nc4cc(S(C)(=O)=O)ccc43)c2c1C (stereo not drawn),0.003 to 25 µM
15,CCCc1c(C(=O)NCCCN2CCCC2)cn2ncnc(Nc3ccc(C)c(O)c3)c12,0.003 to 25 µM
16,Cc1ccc(Nc2ncnn3cc(C(=O)NCCN4CCCC4)c(C)c23)cc1O,0.003 to 25 µM
17,Cc1ccc(Nc2ncnn3cc(C(=O)NCCCN4CCCC4)c(C)c23)cc1O,0.003 to 25 µM
18,CCOC(=O)c1cn2ncnc(Nc3ccc(OC)nc3)c2c1CC,0.003 to 25 µM
